Consider 20 molecules from US20260248783A1 (ASCLETIS BIOSCIENCE CO., LTD., priority 2021, published 2026).

The target in the test is T1, PD-1/PD-L1 (Homo sapiens, UniProt Q9NZQ7).
T1 construct: Recombinant human PD-L1 protein (19-238) with a Histag at the C-terminus; purchased AcroBiosystems PD1-H5229 (PD-L1); PD1-H5257 (PD-1)
T1 sequence (Q9NZQ7 19-238): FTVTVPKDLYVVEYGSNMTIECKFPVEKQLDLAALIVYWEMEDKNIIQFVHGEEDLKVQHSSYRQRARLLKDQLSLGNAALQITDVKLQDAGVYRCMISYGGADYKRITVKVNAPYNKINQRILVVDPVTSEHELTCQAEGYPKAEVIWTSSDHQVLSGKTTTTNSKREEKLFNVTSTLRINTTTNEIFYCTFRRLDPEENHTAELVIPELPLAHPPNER
Description: PD-1/PD-L1 Homogeneous Time-Resolved Fluorescence (HTRF) Binding Assay. As to conditions: PD-1/PD-L1 HTRF activity; 3 nM PD1, 10 nM PD-L1, 25° C. How it is done: Example 107. PD-1/PD-L1 Homogeneous Time-Resolved Fluorescence (HTRF) Binding Assay
The assays were conducted in a standard black 384-well polystyrene plate with a final volume of 20 μL. Inhibitors were first serially diluted in DMSO and then added to the plate wells before the addition of other reaction components. The final concentration of DMSO in the assay was 1%. The assays were carried out at 25° C. in the PBS buffer (pH 7.4) with 0.05% Tween-20 and 0.1% BSA. Recombinant human PD-L1 protein (19-238) with a Histag at the C-terminus was purchased from AcroBiosystems (PD1-H5229). Recombinant human PD-1 protein (25-167) with Fe tag at the C-terminus was also purchased from AcroBiosystems (PD1-H5257). PD-L1 and PD-1 proteins were diluted in the assay buffer and 10 μL was added to the plate well. Plates were centrifuged and proteins were preincubated with inhibitors for 40 minutes. The incubation was followed by the addition of 10 μL of HTRF detection buffer supplemented with Europium cryptate-labeled anti-human IgG (PerkinElmer-AD0212) specific for Fe and anti-His antibody conjugated to SureLight®—Allophycocyanin (APC, PerkinElmer-AD0059H). After centrifugation, the plate was incubated at 25° C. for 60 min. before reading on a PHERAstar FS plate reader (665 nm/620 nm ratio). Final concentrations in the assay were […], 10 nM PD-L1, 1 nM europium anti-human IgG and 20 nM anti-His-Allophycocyanin. IC50 determination was performed by fitting the curve of percent control activity versus the log of the inhibitor concentration.
Regarding `CC(=O)NCCNCc1cn2cc(-c3cccc(-c4cccc(-c5cc6c(=O)n(C[C@@H]7CCC(=O)N7)c(CNCCNC(C)=O)cn6c5)c4Cl)c3Cl)cc2c(=O)n1C[C@@H]1CCC(=O)N1` [Compound 73, N,N′-(((((2,2′-dichloro-[1,1′-biphenyl]-3,3′-diyl)bis(1-oxo-2-(((S)-5-oxopyrrolidin-2-yl)methyl)-1,2-dihydropyrrolo[1,2-a]pyrazine-7,3-diyl))bis(methylene))bis(azanediyl))bis(ethane-2,1-diyl))diacetamide], the IC50 was in the range of 10 to 100 nM. `Cc1cn2cc(-c3cccc(-c4cccc(-c5cc6c(=O)n(CCNCC(O)CC(=O)O)c(C)cn6c5)c4Cl)c3Cl)cc2c(=O)n1CCNCC(O)CC(=O)O` (centres unmarked) [Compound 56, 4,4′-((((2,2′-dichloro-[1,1′-biphenyl]-3,3′-diyl)bis(3-methyl-1-oxopyrrolo[1,2-a]pyrazine-7,2(1H)-diyl))bis(ethane-2,1-diyl))bis(azanediyl))bis(3-hydroxybutanoic acid)] had an IC50 of no less than 100 nM. For `Cc1cn2nc(-c3cccc(-c4cccc(-c5cc6c(=O)n(CCN[C@H](C(=O)O)[C@@H](C)O)c(C)cn6n5)c4Cl)c3Cl)cc2c(=O)n1CCN[C@H](C(=O)O)[C@@H](C)O` [Compound 60, (2S,2'S,3R,3′R)-2,2′-((((2,2′-dichloro-[1,1′-biphenyl]-3,3′-diyl)bis(6-methyl-4-oxopyrazolo[1,5-a]pyrazine-2,5(4H)-diyl))bis(ethane-2,1-diyl))bis(azanediyl)) bis(3-hydroxybutanoic acid)] the value was 10 to 100 nM. Regarding `Cc1cn2cc(-c3cccc(-c4cccc(-c5cc6c(=O)n(CCNCC7CCCN7)c(C)cn6c5)c4Cl)c3Cl)cc2c(=O)n1CCNCC1CCCN1` (centres unmarked) [Compound 55, 7,7′-(2,2′-dichloro-[1,1′-biphenyl]-3,3′-diyl)bis(3-methyl-2-(2-((pyrrolidin-2-ylmethyl)amino)ethyl)pyrrolo[1,2-a]pyrazin-1(2H)-one)], the IC50 was no less than 100 nM. To `Cc1cn2nc(-c3cccc(-c4cccc(-c5cc6c(=O)n(C[C@@H]7CCC(=O)N7)c(C)cn6n5)c4Cl)c3Cl)cc2c(=O)n1C[C@@H]1CCC(=O)N1` [Compound 29] belongs less than 10 nM; to `O=C1CC[C@@H](Cn2cnc3[nH]c(-c4cccc(-c5cccc(-c6cc7c(=O)n(C[C@@H]8CCC(=O)N8)cnc7[nH]6)c5Cl)c4Cl)cc3c2=O)N1` [Compound 14, 6,6′-(2,2′-dichloro-[1,1′-biphenyl]-3,3′-diyl)bis(3-(((S)-5-oxopyrrolidin-2-yl)methyl)-3,7-dihydro-4H-pyrrolo[2,3-d]pyrimidin-4-one)], 10 to 100 nM. With `Cc1cn2nc(-c3cccc(-c4cccc(-c5cc6c(=O)n(C[C@@H]7C[C@@H](O)CN7)c(C)cn6n5)c4Cl)c3Cl)cc2c(=O)n1C[C@@H]1C[C@@H](O)CN1` [Compound 92, 2,2′-(2,2′-dichloro-[1,1′-biphenyl]-3,3′-diyl)bis(5-(((2S,4R)-4-hydroxypyrrolidin-2-yl)methyl)-6-methylpyrazolo[1,5-a]pyrazin-4(5H)-one)], the IC50 was less than 10 nM.

In turn, `O=C(O)Cn1cnn2cc(-c3cccc(-c4cccc(-c5cc6c(=O)n(CC(=O)O)cnn6c5)c4Cl)c3Cl)cc2c1=O` [Compound 23, 2,2′-((2,2′-dichloro-[1,1′-biphenyl]-3,3′-diyl)bis(4-oxopyrrolo[2,1-f][1,2,4]triazine-6,3(4H)-diyl))diacetic acid] gave an IC50 of no less than 100 nM.

In the case of `O=C1NCCN1CCn1cnn2cc(-c3cccc(-c4cccc(-c5cc6c(=O)n(CCN7CCNC7=O)cnn6c5)c4Cl)c3Cl)cc2c1=O` [Compound 19, 6,6′-(2,2′-dichloro-[1,1′-biphenyl]-3,3′-diyl)bis(3-(2-(2-oxoimidazolidin-1-yl)ethyl)pyrrolo[2,1-f][1,2,4]triazin-4(3H)-one)], the IC50 is no less than 100 nM.

On to `O=C1CC[C@@H](CN2CCn3cc(-c4cccc(-c5cccc(-c6cc7n(c6)CCN(C[C@@H]6CCC(=O)N6)C7=O)c5Cl)c4Cl)cc3C2=O)N1` [Compound 9, 7,7′-(2,2′-dichloro-[1,1′-biphenyl]-3,3′-diyl)bis(2-(((S)-5-oxopyrrolidin-2-yl)methyl)-3,4-dihydropyrrolo[1,2-a]pyrazin-1(2H)-one)], for which the IC50 is no less than 100 nM. In turn, `Cn1c(CN2CC[C@H](C(=O)O)C2)cn2nc(-c3cccc(-c4cccc(-c5cc6c(=O)n(C)c(CN7CC[C@H](C(=O)O)C7)cn6n5)c4Cl)c3Cl)cc2c1=O` [Compound 41, (3S,3'S)-1,1′-(((2,2′-dichloro-[1,1′-biphenyl]-3,3′-diyl)bis(5-methyl-4-oxo-4,5-dihydropyrazolo[1,5-a]pyrazine-2,6-diyl))bis(methylene))bis(pyrrolidine-3-carboxylic acid)] showed an IC50 of 10 to 100 nM. To `Cc1cn2nc(-c3cccc(-c4cccc(-c5cc6c(=O)n(CCN[C@@H](CN)C(=O)O)c(C)cn6n5)c4Cl)c3Cl)cc2c(=O)n1CCNC(CN)C(=O)O` (stereo in doubt) [Compound 67, (2S,2'S)-2,2′-((((2,2′-dichloro-[1,1′-biphenyl]-3,3′-diyl)bis(6-methyl-4-oxopyrazolo[1,5-a]pyrazine-2,5(4H)-diyl))bis(ethane-2,1-diyl))bis(azanediyl))bis(3-aminopropanoic acid)] belongs no less than 100 nM. For `Cc1cn2nc(-c3cccc(-c4cccc(-c5cc6c(=O)n(CCN[C@]7(C(=O)O)C[C@H](O)C7)c(C)cn6n5)c4Cl)c3Cl)cc2c(=O)n1CCN[C@]1(C(=O)O)C[C@H](O)C1` [Compound 102, (1S,1'S,3S,3'S)-1,1′-((((2,2′-dichloro-[1,1′-biphenyl]-3,3′-diyl)bis(6-methyl-4-oxopyrazolo[1,5-a]pyrazine-2,5(4H)-diyl))bis(ethane-2,1-diyl))bis(azanediyl)) bis(3-hydroxycyclobutane-1-carboxylic acid)] the value was less than 10 nM.

In turn, `Cc1cn2nc(-c3cccc(-c4cccc(-c5cc6c(=O)n(CCN[C@@H](CN(C)C)C(=O)O)c(C)cn6n5)c4Cl)c3Cl)cc2c(=O)n1CCN[C@@H](CN(C)C)C(=O)O` [Compound 69, (2S,2'S)-2,2′-((((2,2′-dichloro-[1,1′-biphenyl]-3,3′-diyl)bis(6-methyl-4-oxopyrazolo[1,5-a]pyrazine-2,5(4H)-diyl))bis(ethane-2,1-diyl))bis(azanediyl))bis(3-(dimethylamino)propanoic acid)] showed an IC50 of no less than 100 nM. Consider `Cc1cn2nc(-c3cccc(-c4cccc(-c5cc6c(=O)n(C[C@H]7CCNC7)c(C)cn6n5)c4Cl)c3Cl)cc2c(=O)n1C[C@H]1CCNC1` [Compound 81, 2,2′-(2,2′-dichloro-[1,1′-biphenyl]-3,3′-diyl)bis(6-methyl-5-(((S)-pyrrolidin-3-yl)methyl)pyrazolo[1,5-a]pyrazin-4(5H)-one)], for which the IC50 lay in the range of 10 to 100 nM.

With `Cn1c(-c2cccc(-c3cccc(-c4nc5c(c(=O)n(C[C@@H]6CCC(=O)N6)c(=O)n5C)n4C)c3Cl)c2Cl)nc2c1c(=O)n(C[C@@H]1CCC(=O)N1)c(=O)n2C` [Compound 10, 8,8′-(2,2′-dichloro-[1,1′-biphenyl]-3,3′-diyl)bis(3,7-dimethyl-1-(((S)-5-oxopyrrolidin-2-yl)methyl)-3,7-dihydro-1H-purine-2,6-dione)], the IC50 is no less than 100 nM. In the case of `O=C1CC[C@@H](Cn2ccn3nc(-c4cccc(-c5cccc(-c6cc7c(=O)n(C[C@@H]8CCC(=O)N8)ccn7n6)c5Cl)c4Cl)cc3c2=O)N1` [Compound 7, 2,2′-(2,2′-dichloro-[1,1′-biphenyl]-3,3′-diyl)bis(5-(((S)-5-oxopyrrolidin-2-yl)methyl)pyrazolo[1,5-a]pyrazin-4(5H)-one)], the IC50 is less than 10 nM. For `CC(=O)NCCNCc1cn2cc(-c3cccc(-c4cccc(-c5cc6c(=O)n(C)c(CNCCNC(C)=O)cn6c5)c4Cl)c3Cl)cc2c(=O)n1C` [Compound 44, N,N′-(((((2,2′-dichloro-[1,1′-biphenyl]-3,3′-diyl)bis(2-methyl-1-oxo-1,2-dihydropyrrolo[1,2-a]pyrazine-7,3-diyl))bis(methylene))bis(azanediyl))bis(ethane-2,1-diyl))diacetamide] the value was 10 to 100 nM; for `Cc1cn2cc(-c3cccc(-c4cccc(-c5cc6c(=O)n(CCN7CC[C@H](O)C7)c(C)cn6c5)c4Cl)c3Cl)cc2c(=O)n1CCN1CC[C@H](O)C1` [Compound 48, 7,7′-(2,2′-dichloro-[1,1′-biphenyl]-3,3′-diyl)bis(2-(2-((S)-3-hydroxypyrrolidin-1-yl)ethyl)-3-methylpyrrolo[1,2-a]pyrazin-1(2H)-one)], 10 to 100 nM.

Consider `Cn1c(CNCCO)cn2cc(-c3cccc(-c4cccc(-c5cc6c(=O)n(C)c(CNCCO)cn6c5)c4Cl)c3Cl)cc2c1=O` [Compound 45, 7,7′-(2,2′-dichloro-[1,1′-biphenyl]-3,3′-diyl)bis(3-(((2-hydroxyethyl)amino)methyl)-2-methylpyrrolo[1,2-a]pyrazin-1(2H)-one)], for which the IC50 was less than 10 nM.
